From paper PMC2908295 (Journal of medicinal chemistry, 2010)
Square brackets hold non-standard residues; d marks the D form. Peptide text beside a SMILES is read from it. * marks the point of attachment. X1 = C[C@@H](CCC[N+](C)(C)C)C(=O)*; Tle = CC(C)(C)[C@H](N)C(=O)O

Assays:
[1] = PK analysis by NTR-1 binding activity in plasma; format: in vivo; conditions: rat, i.v., NTR-1 radiolabel competition assay
[2] = system: male Sprague-Dawley rats; assay: Hypothermia assay; format: in vivo; conditions: rat
[3] = PK analysis by LC/MS; format: in vivo; conditions: rat, iv, 1 mg/kg
[4] = system: male Sprague-Dawley rats; assay: Acetic acid writhing model; format: in vivo; conditions: rat, i.v., 3% acetic acid i.p. 20 min after drug, n = 3 for all doses
[5] = system: rats; assay: Chung model for neuropathic pain; format: in vivo; conditions: rat, single dose of 10 mg/kg i.p., n = 5
[6] = system: male Sprague-Dawley rats; assay: Hotplate model; format: in vivo, rat
[7] = rat hotplate, morphine 5 mg/kg i.p., n ≥ 6

| SMILES | time until plasma NTR-1 binding returned to level of non-treated animals [1] [min] | duration of drop in core body temperature ([2]; 10 mg/kg i.v., n ≥ 4) [h] | EC50 hypothermia (area under the PD curves) ([2]; i.v., rectal temperature every 15 min for 4 h, n = 3 for all doses) [mg/kg] | Tmax ([3]; in vivo) [min] | half-life ([3]; plasma) [min] | EC50 acetic acid writhing [4] [mg/kg] | duration of maximal response, Chung model [5] | maximum response latency ([6]; rat hotplate, comparison with hydrolysis products, cut-off 30 s) [s] | EC50 hotplate, i.m. ([6]; rat, i.m., assessed after 60 min, n = 3 for all doses) [mg/kg] | EC50 hotplate, i.p. ([6]; rat, i.p., assessed after 60 min, n = 3 for all doses) [mg/kg] | EC50 hotplate, i.v. ([6]; rat, i.v., assessed after 60 min, n = 3 for all doses) [mg/kg] | EC50 hotplate, s.c. ([6]; rat, s.c., assessed after 60 min, n = 3 for all doses) [mg/kg] | maximal response (% of MPE), morphine benchmark [6, 7] [%] | time of return of response to baseline [6, 7] [min] | time to reach 100% MPE [6, 7] [min] |
| --- | --- | --- | --- | --- | --- | --- | --- | --- | --- | --- | --- | --- | --- | --- | --- |
| CC(C)C[C@H](NC(=O)[C@@H](NC(=O)[C@H](Cc1ccc(O)cc1)NC(=O)[C@@H]1CCCN1C(=O)[C@H](CCCNC(=N)N)NC(=O)[C@@H](C)CCC[N+](C)(C)C)C(C)(C)C)C(=O)O [Compound 1] (X1-RPY[Tle]L-OH; N-terminus assumed) | 60 | > 4 | 0.78 | ≤ 5 | 26.3 | 0.16 | maintained for over one hour | 30 | 2.45 | 2.00 | 2.64 | 3.84 |  |  |  |
| CN1CC[C@]23c4c5ccc(O)c4O[C@H]2[C@@H](O)C=C[C@H]3[C@H]1C5 [morphine, reference compound] |  |  |  |  |  |  |  |  |  |  |  |  | 100 | ≤ 200 | 15 to 30 |
